Test results: patent US7732451B2, “Naphthalene-containing melanocortin receptor-specific small molecule” (Palatin Technologies, Inc., priority 2002, dated 2010)
Read-outs that look alike come from different tables or passages of the source.

Columns and labels:
[1] = target: T1, MC1-R (B-16 mouse melanoma cells) (Mus musculus, UniProt Q01727); assay: competitive inhibition binding assay, 125I-NDP-α-MSH, membranes; conditions: for inhibition at 1 µM: 1 μM compound, average of triplicates, results less than 0% reported as 0%
T1 construct: B-16 mouse melanoma cells (containing MC1-R); endogenous in cells; host or cells: B-16 mouse melanoma cells
Description: (§1) A competitive inhibition binding assay was conducted using membranes prepared from hMC3-R, hMC4-R, hMC5-R, and B-16 mouse melanoma cells (containing MC1-R) using 0.4 nM ^125I-NDP-α-MSH (New England Nuclear, Boston, Mass., USA) in 50 mM HEPES buffer containing 1 mM MgCl2, 2 mM CaCl2, and 5 mM KCl, at pH 7.2. The assay tube also contained a chosen concentration of the test compound of this invention, for determining its efficacy in inhibiting the binding of ^125I-NDP-α-MSH to its receptor.
(§2) Incubation was for 90 minutes at room temperature, after which the assay mixture was filtered and the membranes washed three times with ice cold buffer. The filter was dried and counted in a gamma counter for remaining radioactivity bound to the membranes. 100% specific binding was defined as the difference in radioactivity (cpm) bound to cell membranes in the absence and presence of 1 μM α-MSH. […] Each assay was conducted in triplicate and the actual mean values are described. The Ki (nM) of certain compounds of the invention were determined.

hMC3-R = target: T2, hMC3-R (Homo sapiens, UniProt P41968); assay: as above; conditions: for inhibition at 1 µM: 1 μM compound, average of triplicates, read-out: Inhibition at 1 μM MC3-R
T2 construct: expressed in transfected cells
Description: as §1, §2

hMC4-R = target: T3, hMC4-R (Homo sapiens, UniProt P32245); assay: as above; conditions: for inhibition at 1 µM: 1 μM compound, average of triplicates, read-out: Inhibition at 1 μM MC4-R; for Ki: read-out: Ki (nM) MC4-R
T3 construct: expressed in transfected cells
Description: as §1, §2

hMC5-R = target: T4, hMC5-R (Homo sapiens, UniProt P33032); assay: as above; conditions: for inhibition at 1 µM: 1 μM compound, average of triplicates, read-out: Inhibition at 1 μM MC5-R; for Ki: read-out: Ki (nM) MC5-R
T4 construct: expressed in transfected cells
Description: as §1, §2

[2] = target: T1, MC1-R (B-16 mouse melanoma cells); assay: cAMP assay for agonist/antagonist status; assay type: cell-based; conditions: antagonism = inhibition of α-MSH-induced cAMP
Description: (§3) Functional evaluation of compounds at melanocortin receptors was performed by measuring the accumulation of intracellular cAMP in HEK-293 cells expressing MC3-R, MC4-R or MC5-R, and in B-16 mouse melanoma cells (containing MC1-R). Cells, suspended in Earle's Balanced Salt Solution containing 10 mM HEPES, pH 7.5, 5 mM MgCl2, 1 mM glutamine, 0.1% albumin and 0.6 mM 3-isobutyl-1-methyl-xanthine, a phosphodiesterase inhibitor, were plated in 96 well plates at a density of 0.5×10^5 cells per well. Cells were incubated with the test compounds in the presence or absence of α-MSH for 1 hour at 37° C. cAMP levels were measured by EIA (Amersham) in the cell lysates. Data analysis and EC50 values were determined using nonlinear regression analysis with Prism Graph-Pad software.
(§4) The agonist/antagonist status with respect to MC4-R of certain compounds of the invention was determined. Antagonistic activity was determined by measuring the inhibition of α-MSH-induced cAMP levels following exposure to the compounds as in Example 2.

[3] = target: T5, MC4-R (HEK-293 cells expressing MC4-R) (Homo sapiens, UniProt P32245); assay: cAMP assay for agonist/antagonist status; assay type: cell-based; conditions: antagonism = inhibition of α-MSH-induced cAMP
T5 construct: expressed in transfected cells; host or cells: HEK-293
Description: as §3, §4

[4] = target: T6, MC5-R (HEK-293 cells expressing MC5-R) (Homo sapiens, UniProt P33032); assay: cAMP assay for agonist/antagonist status; assay type: cell-based; conditions: antagonism = inhibition of α-MSH-induced cAMP
T6 construct: expressed in transfected cells; host or cells: HEK-293
Description: as §3, §4

[5] = penile erection (PE) studies in male rats; assay type: in vivo, rat; conditions: IV
Description: The ability of compounds to induce penile erection (PE) in male rats was evaluated with selected compounds. Male Sprague-Dawley rats weighing 200-250 g were kept on a 12 hour on/off light cycle with food and water ad libitum. All behavioral studies were performed between 10 a.m. and 5 p.m. Groups of 4-8 rats were treated with compounds at a variety of doses via intravenous (IV) or intracerebroventricular (ICV) routes. Immediately after treatment, rats were placed into individual polystyrene cages (27 cm long, 16 cm wide, and 25 cm high) for behavioral observation. The iv and icv treated rats were observed respectively for 30 minutes and 120 min and the number of yawns, grooming bouts and PEs were recorded in 10-minute bins.

[6] = ICV feeding studies, change in food intake and body weight; assay type: in vivo, rat; conditions: 1 nmol, male Sprague-Dawley rats; for change in weight: 24 hour
Description: (§5) Change in food intake and body weight was evaluated for selected compounds. Male Sprague-Dawley rats weighing ˜300 g at the beginning of the experiment were kept on a 12 hour on/off light cycle. Lights out was adjusted to 12:00 p.m. to allow for dosing just prior to the start of their dark period. Rats (8-12/group) were fed powdered chow and water ad libitum. For 1 week before treatment, 24-hour food intake and body weight change was recorded to assess a baseline for the group during vehicle treatment. The rats were dosed ICV with vehicle or selected compounds (1-3 nmol). The changes in body weight and food intake for the 24 hour period after dosing were determined. The changes in body weight and food intake for the 48 hour period, and in same cases for 72 hours as well, after dosing were also measured to determined reversal of changes in body weight and food intake effect back to baseline.

[7] = IV feeding studies, change in food intake and body weight; assay type: in vivo, rat; conditions: 3 μg/Kg, male Sprague-Dawley rats; for change in weight: 24 hour
Description: as §5, with “The rats were dosed ICV with vehicle or selected compounds (1-3 nmol).” left out

[8] = 1 μg/Kg, 30 minutes observation, stated below baseline

T2 sequence (P41968 whole entry): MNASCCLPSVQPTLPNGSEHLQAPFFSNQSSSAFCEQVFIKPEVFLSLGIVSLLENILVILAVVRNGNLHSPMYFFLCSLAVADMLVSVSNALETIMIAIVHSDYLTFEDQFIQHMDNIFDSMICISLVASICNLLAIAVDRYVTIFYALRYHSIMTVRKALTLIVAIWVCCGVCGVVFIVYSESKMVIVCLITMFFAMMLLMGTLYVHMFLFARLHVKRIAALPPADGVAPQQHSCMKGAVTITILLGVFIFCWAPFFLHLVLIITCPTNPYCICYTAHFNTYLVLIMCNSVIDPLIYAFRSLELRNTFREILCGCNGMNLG
T5 sequence (P32245 whole entry): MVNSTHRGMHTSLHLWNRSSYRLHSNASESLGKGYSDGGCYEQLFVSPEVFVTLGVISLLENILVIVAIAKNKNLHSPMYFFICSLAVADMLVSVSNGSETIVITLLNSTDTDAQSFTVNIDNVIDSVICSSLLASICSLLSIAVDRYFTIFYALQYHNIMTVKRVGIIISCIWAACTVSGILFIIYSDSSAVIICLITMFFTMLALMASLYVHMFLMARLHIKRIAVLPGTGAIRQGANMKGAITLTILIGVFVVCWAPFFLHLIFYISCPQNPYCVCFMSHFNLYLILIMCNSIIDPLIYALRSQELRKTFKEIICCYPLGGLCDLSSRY
T3 sequence (P32245 whole entry): as above
T1 sequence (Q01727 whole entry): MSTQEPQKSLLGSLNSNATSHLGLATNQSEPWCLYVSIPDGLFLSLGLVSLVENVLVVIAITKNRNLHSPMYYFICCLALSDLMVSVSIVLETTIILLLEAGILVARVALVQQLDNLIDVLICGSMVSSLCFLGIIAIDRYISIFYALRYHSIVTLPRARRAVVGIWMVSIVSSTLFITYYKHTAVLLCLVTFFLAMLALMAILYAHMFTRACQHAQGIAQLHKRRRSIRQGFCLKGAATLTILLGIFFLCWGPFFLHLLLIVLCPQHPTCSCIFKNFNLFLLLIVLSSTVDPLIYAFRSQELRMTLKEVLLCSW
T6 sequence (P33032 whole entry): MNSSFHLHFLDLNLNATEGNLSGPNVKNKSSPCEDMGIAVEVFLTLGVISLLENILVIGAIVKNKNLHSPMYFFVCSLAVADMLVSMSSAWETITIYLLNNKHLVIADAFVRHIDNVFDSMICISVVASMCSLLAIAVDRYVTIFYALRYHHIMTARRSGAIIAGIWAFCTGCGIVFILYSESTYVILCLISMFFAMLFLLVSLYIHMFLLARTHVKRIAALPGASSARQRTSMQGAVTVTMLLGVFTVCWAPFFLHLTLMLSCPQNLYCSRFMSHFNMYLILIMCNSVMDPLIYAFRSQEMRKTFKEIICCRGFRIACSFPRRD
T4 sequence (P33032 whole entry): as above

Ki ([1]; bound printed in μM in a Ki (nM) table, read-out: Ki MC1-R) [nM] | Ki (hMC3-R; bound printed in μM in a Ki (nM) table, read-out: Ki MC3-R) [nM] | Compound | Ki ([1]; read-out: Ki (nM) MC1-R) [nM] | inhibition at 1 µM (hMC3-R) [%] | Ki (hMC3-R; read-out: Ki (nM) MC3-R) [nM] | inhibition at 1 µM (hMC4-R) [%] | Ki (hMC4-R) [nM] | inhibition at 1 µM (hMC5-R) [%] | Ki (hMC5-R) [nM] | agonist/antagonist status as to MC1-R [2] | agonist/antagonist status as to MC4-R [3] | agonist/antagonist status as to MC5-R [4] | mean PE [5, 8] | mean PE ([5]; 50 μg/Kg, stated not statistically relevant) | 24 hour change in food intake [6] [g] | change in weight [6] [g] | inhibition at 1 µM [1] [%] | PE effect ([5]; dose levels of 0.3, 3 and 30 μg/Kg) | 24 hour change in food intake [7] [g] | change in weight [7] [g]
– | – | NCCCC[C@H]1C(=O)N(CCc2ccc3ccccc3c2)CCN1C(=O)[C@@H](Cc1ccc(Cl)cc1Cl)NC(=O)c1ccc(Oc2ccccc2)cc1 [Example 10] | 915 | 51 | 150 | 99 | 1 | 51 | 282 | antagonist | antagonist | agonist | 0.14 | 0.25 | -0.6 | -1.73 | – | – | – | –
– | – | C[C@@H]1CN(C(=O)[C@H](N)Cc2ccc(Cl)cc2)[C@@H](CCCNC(=N)N)CN1CCc1ccc2ccccc2c1 [Example 15, N-{3-[1-[2(R)-Amino-3-(4-chloro-phenyl)-propionyl]-5(R)-methyl-4-(2-naphthalen-2-yl-ethyl)-piperazin-2(S)-yl]-propyl}-guanidine] | 94 | 61 | 160 | 97 | 11 | 52 | 551 | agonist | agonist | agonist | – | – | -3.9 | -3.9 | 85 | no observed effect | -9.6 | -6.6
– | – | Cc1ccc(C[C@@H](N)C(=O)N2C[C@@H](C)N(CCc3ccc4ccccc4c3)C[C@@H]2CCCNC(=N)N)c(C)c1 [Example 16, N-{3-[1-[2(R)-Amino-3-(2,4-dimethyl-phenyl)-propionyl]-5(R)-methyl-4-(2-naphthalen-2-yl-ethyl)-piperazin-2(S)-yl]-propyl}-guanidine] | 1220 | 67 | 157 | 98 | 11 | 73 | 717 | – | agonist | – | – | – | -2.6 | -5 | 22 | – | -7.3 | -6.3
> 1000 | > 1000 | NCCCC[C@H]1C(=O)N(CCc2ccc3ccccc3c2)CCN1C(=O)[C@@H](Cc1ccc(Cl)cc1Cl)NC(=O)/C=C/c1ccccc1 [Example 8] | – | 46 | – | 96 | 13 | 60 | 410 | antagonist | antagonist | agonist | 0.13 | – | -10.1 | -9.91 | 30 | – | – | –
